# According to patent US4073885A (The United States of America as represented by the …, priority 1976, dated 1978):
# How the values were obtained:
# rat = assay: Assessment of analgesia: rat tail-flick test after micro-injection into periaqueductal gray matter; format: in vivo
# Description: Eight rats were stereotaxically implanted with chronic indwelling cannulae guides constructed from 23 gauge TW stainless steel tubing. […] Testing was initiated approximately 1 week following surgery. The antinociceptive actions of morphine and anodynin were assessed using a modification of the D'Armour and Smith paradigm in which the latency for a rat to remove its tail from under a radiant heat source is measured in seconds. Baseline "tail-flick" latencies were always determined approximately 30 minutes prior to a drug or control injection by four trials separated by 10 sec.
# The solutions were injected into the central gray matter with 30 guage injectors which extended 2 mm past the tip of the guide cannula. The injection rate was 15 μl/min. Testing for antinociception was initiated immediately after an injection. Animals were tested at 1-min. intervals for 5 min. and then at 10, 15, 30, and 60 min. At the end of the study, all animals were sacrificed and their brains were prepared following standard histological procedures to localize cannulae placements.
# opiate receptor [1] = assay: Brain enzymatic inactivation as assessed by opiate receptor binding inhibition
# Description: Male rats weighing 180-220 g (Sprangue-Dawley) were decapitated and each brain with the cerebellum removed was homogenized in 150 ml of ice-cold standard buffer (0.05 M Tris-HCl, ph 7.4 at 37°). After centrifugation at 4° at 12,000 × g, the membranes were reconstituted in standard buffer. After recentrifugation, each brain was suspended in 10 ml of the standard buffer.
# Aliquots of the freshly prepared membrane preparation (100 μl) were incubated for 1 hr at 0° with 100 mM NaCl in a final volume of 0.5 ml with ^3 H!naloxone (Amersham-Searle, 34 Ci/mmol) in a concentration of 1.3 nM (20,000 cpm). After rapid filtration and washing with two 7-ml portions of ice-cold standard buffer, membrane-laden filters were transferred and counted at 40-45% efficiency at least 6 hours after shaking with detergent scintillation fluor (Aquasol, New England Nuclear).
# The ability of the blood inhibitory factor eluted from the thin-layer plate to be degraded by enzymes present in brain was examined by incubating the blood substance with membranes or supernatant fluid from rat brain, terminating the enzyme action by boiling, and subsequently adding the product to the opiate receptor assay (see Table 1).
# Rat brains were homogenized in 100 volumes (wt/vol) of standard buffer an
# the particulate fraction and supernatant fluid were obtained by
# centrifugation for 10 min. at 40,000 × g. After incubation under th
# specified conditions in a total volume of 1 ml with met-enkephalin or
# the supernatant fluid were assessed for inhibition in the standard opiate
# [2] = Chang et al., cited from earlier work
# opiate receptor [3] = assay: Opiate receptor assay ([3H]naloxone binding, rapid filtration, rat brain membranes); settings: 100 nM
compound,measurement,setting,value
CN1CC[C@]23c4c5ccc(O)c4O[C@H]2[C@@H](O)C=C[C@H]3[C@H]1C5 [morphine],antinociceptive action after pretreatment with naloxone,"rat; 20 mg/kg naloxone intraperitoneally, 15 min prior",blocked
same,behavioral effect (immobility),rat; central gray micro-injection in rats,stuperous immobility
"CSCC[C@H](NC(=O)[C@H](Cc1ccccc1)NC(=O)CNC(=O)CNC(=O)[C@@H](N)Cc1ccc(O)cc1)C(=O)O [Net-Enkephalin, H-Tyr-Gly-Gly-Phe-Met-OH]",% Inhibition Stereospecific Binding,"opiate receptor [1]; pre-incubation: Buffer, 1 hr, 37°",65%
same,% Inhibition Stereospecific Binding,"opiate receptor [1]; pre-incubation: rat brain particulate fraction, 0.25 hr, 37°",39%
same,% Inhibition Stereospecific Binding,"opiate receptor [1]; pre-incubation: rat brain particulate fraction, 1 hr, 0°",65%
same,% Inhibition Stereospecific Binding,"opiate receptor [1]; pre-incubation: rat brain particulate fraction, 1 hr, 37°",2%
same,% Inhibition Stereospecific Binding,"opiate receptor [1]; pre-incubation: rat brain supernatant fluid, 1 hr, 37°",1%
CC(C)C[C@H](NC(=O)[C@H](Cc1ccccc1)NC(=O)CNC(=O)CNC(=O)[C@@H](N)Cc1ccc(O)cc1)C(=O)O [enkephalin],destruction in the brain,[2],rapidly destroyed
same,time after micro-injection at which analgesia disappears completely,[2],1 to 2 min
same,dose required to elicit analgesia relative to morphine,[2]; micro-injection,at least 40 times
same,Loss of opiate receptor inhibitory activity by brain enzymes,opiate receptor [1]; incubation with membranes or supernatant fluid from rat brain,completely and rapidly reversed
C=CCN1CC[C@@]23CCCC[C@@H]2[C@@H]1Cc1ccc(O)cc13 [dextrallorphan],effect on 3H-naloxone binding (control incubation),opiate receptor [3],did not significantly reduce binding
